pIC50: −log10 of the molar value. Like-named read-outs stand apart in the source and are kept apart here.
Target: T1, P2X7 receptor (Homo sapiens, UniProt Q99572)
T1 construct: endogenous in cells; host or cells: THP-1 cells differentiated with LPS and IFN-γ
T1 sequence (Q99572 1-595): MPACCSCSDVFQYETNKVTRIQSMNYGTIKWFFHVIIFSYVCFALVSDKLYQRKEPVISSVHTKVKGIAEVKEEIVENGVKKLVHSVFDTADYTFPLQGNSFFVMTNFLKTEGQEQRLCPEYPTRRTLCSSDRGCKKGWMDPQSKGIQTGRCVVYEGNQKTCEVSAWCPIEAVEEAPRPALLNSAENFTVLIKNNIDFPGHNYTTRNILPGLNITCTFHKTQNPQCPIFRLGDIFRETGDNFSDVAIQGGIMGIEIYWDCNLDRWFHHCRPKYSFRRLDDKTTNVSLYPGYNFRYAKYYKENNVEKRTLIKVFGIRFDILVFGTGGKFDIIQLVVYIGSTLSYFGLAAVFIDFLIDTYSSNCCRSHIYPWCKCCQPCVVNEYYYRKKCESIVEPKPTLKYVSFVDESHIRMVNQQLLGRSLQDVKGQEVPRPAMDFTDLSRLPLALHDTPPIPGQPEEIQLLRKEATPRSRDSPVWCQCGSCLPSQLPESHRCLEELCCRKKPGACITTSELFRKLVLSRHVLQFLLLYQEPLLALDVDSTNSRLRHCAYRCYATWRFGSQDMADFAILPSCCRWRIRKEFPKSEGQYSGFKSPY
Experiment: IL-1β release assay in differentiated THP-1 cells stimulated with BzATP (Example 9)
Assay type: cell-based
Settings: for inhibition at 0.3 µM: 0.3 μM concentration, read-out: IL-1β % Inhib. @ 0.3 or 0.1 μM; for pIC50: read-out: IL-1β IC50
Protocol: The cells are then pretreated for 30 minutes with the compound of interest at the appropriate concentration in RPMI media containing 100 IU/mL penicillin, 100 ug/mL streptomycin. […] 30 uL of cell supernatant is then collected and IL-1β levels determined via ELISA (R&D systems Cat. # HSLB50) according to manufacturer's recommendations using the Tecan Safire plate reader. Background adjusted IL-1β levels of drug treated and non-treated cells are used to calculate the percent inhibition.
The compounds set forth in Table 1 were tested for activity in a cellular model as described herein. […] Measurements were made and IC50 values, presented in Table 2, below, were determined by fitting the data to a four parameter logistic equation using GraphPad Prism software (GraphPad Software, Inc). The equation may be expressed by the following formula:
Y=Bottom+(Top-Bottom)/(1+10̂((Log EC50−X)*HillSlope))
Where X is the logarithm of concentration, Y is the response and Y starts at Bottom and goes to Top with a sigmoid shape.

Row | inhibition at 0.3 µM [%] | pIC50 (four parameter logistic fit) | SMILES | IC50 (IL-1β IC50 (nM), four parameter logistic fit) [nM]
1 | > 76 | 7.50 | O=C(Cc1ccc(Cl)c(F)c1)Nc1cccc2c(=O)n(-c3cccnc3F)ccc12 [ID 873] | –
2 | > 76 | 7.55 | O=C(Cc1cccc(C(F)(F)F)c1F)Nc1cccc2c(=O)n(-c3cccnc3F)ccc12 [ID 874] | –
3 | > 76 | 8.08 | CC(C(=O)Nc1cccc2c(=O)n(-c3cccnc3F)ccc12)c1cccc(C(F)(F)F)c1F (stereo not drawn) [ID 875] | –
4 | > 76 | 7.82 | O=C(Cc1ccc(Cl)c(Cl)c1)Nc1cccc2c(=O)n(C3CC3)ccc12 [ID 876] | –
5 | > 76 | 7.63 | O=C(Cc1ccc(C(F)(F)F)cc1)Nc1cccc2c(=O)n(C3CC3)ccc12 [ID 877] | –
6 | > 76 | 8.65 | O=C(CC1CCCCCC1)Nc1cccc2c(=O)n(C3CC3)ccc12 [ID 878] | –
7 | > 76 | 8.17 | O=C(Cc1ccc(C(F)(F)F)c(F)c1)Nc1cccc2c(=O)n(C3CC3)ccc12 [ID 879] | –
8 | > 76 | 7.17 | O=C(Cc1ccc(C(F)(F)F)cc1C(F)(F)F)Nc1cccc2c(=O)n(C3CC3)ccc12 [ID 880] | –
9 | > 76 | 8.36 | O=C(Cc1ccc(F)c(Cl)c1)Nc1cccc2c(=O)n(C3CC3)ccc12 [ID 881] | –
10 | > 76 | 8.22 | O=C(Cc1ccc(Cl)c(F)c1)Nc1cccc2c(=O)n(C3CC3)ccc12 [ID 882] | –
11 | > 76 | 9.49 | O=C(Cc1cccc(C(F)(F)F)c1F)Nc1cccc2c(=O)n(C3CC3)ccc12 [ID 885] | –
12 | > 76 | 7.69 | O=C(Cc1cccc(C(F)(F)F)c1F)Nc1cccc2c(=O)n(C3CCC3)ccc12 [ID 886] | –
13 | > 76 | 7.55 | O=C(Cc1ccc(C(F)(F)F)cc1F)Nc1cccc2c(=O)n(C3CCC3)ccc12 [ID 887] | –
14 | > 76 | 7.84 | O=C(Cc1ccc(Cl)cc1F)Nc1cccc2c(=O)n(C3CCC3)ccc12 [ID 888] | –
15 | > 76 | 9.11 | O=C(CC12CC3CC(CC(C3)C1)C2)Nc1cccc2c(=O)n(C3CC3)ccc12 [ID 889] | –
16 | > 76 | 8.36 | O=C(Cc1ccc(Cl)c(C(F)(F)F)c1)Nc1cccc2c(=O)n(C3CC3)ccc12 [ID 890] | –
17 | 51 to 75 | 6.55 | O=C(Cc1ccc(C(F)(F)F)cc1)Nc1cccc2c(=O)n(C3CCC3)ccc12 [ID 891] | –

More lines, now with the values behind:

Row | SMILES | inhibition at 0.3 µM [%] | pIC50 (four parameter logistic fit) | IC50 (IL-1β IC50 (nM), four parameter logistic fit) [nM]
18 | CC(C(=O)Nc1cccc2c(=O)n([C@H]3CCNC3)ccc12)c1ccc(Cl)cc1 (stereo partly drawn) [ID 823] | > 76 | 7.37 | –
19 | O=C(CC1CCCCCC1)Nc1cccc2c(=O)n([C@H]3CCNC3)ccc12 [ID 824] | > 76 | 8.49 | –
20 | O=C(Cc1ccc(Cl)c(Cl)c1)Nc1cccc2c(=O)n([C@@H]3CCNC3)ccc12 [ID 827] | > 76 | 7.59 | –
21 | CC(C(=O)Nc1cccc2c(=O)n(C3CCNC3)ccc12)c1ccc(Cl)c(Cl)c1 (stereo not drawn) [ID 831] | 51 to 75 | 6.81 | –
22 | C[C@H](C(=O)Nc1cccc2c(=O)n([C@H]3CCNC3)ccc12)c1ccc(Cl)c(Cl)c1 [ID 832] | > 76 | 7.13 | –
23 | CC(C(=O)Nc1cccc2c(=O)n([C@@H]3CCNC3)ccc12)c1ccc(Cl)cc1 (stereo partly drawn) [ID 835] | 51 to 75 | 6.82 | –
24 | O=C(Cc1ccc(Cl)c(C(F)(F)F)c1)Nc1cccc2c(=O)n([C@H]3CCNC3)ccc12 [ID 836] | – | 7.80 | –
25 | O=C(CC1(O)CCCCCC1)Nc1cccc2c(=O)n([C@@H]3CCNC3)ccc12 [ID 837] | 51 to 75 | 6.56 | –
26 | Cc1cc(-n2ccc3c(NC(=O)C(C)c4ccc(Cl)c(C(F)(F)F)c4)cccc3c2=O)n[nH]1 (stereo not drawn) [ID 838] | > 76 | 7.83 | –
27 | CC(C(=O)Nc1cccc2c(=O)n(-c3cc[nH]n3)ccc12)c1ccc(Cl)c(C(F)(F)F)c1 (stereo not drawn) [ID 839] | > 76 | 7.85 | –
28 | CC(C(=O)Nc1cccc2c(=O)n(-c3n[nH]cc3C#N)ccc12)c1ccc(Cl)c(C(F)(F)F)c1 (stereo not drawn) [ID 840] | > 76 | 7.42 | –
29 | O=C(CC12CC3CC(CC(C3)C1)C2)Nc1cccc2c(=O)n(-c3cc[nH]n3)ccc12 [ID 841] | > 76 | 9.53 | –
30 | O=C(Cc1ccc(Cl)c(C(F)(F)F)c1)Nc1cccc2c(=O)n(-c3cc[nH]n3)ccc12 [ID 842] | > 76 | 8.91 | –
31 | CC(C(=O)Nc1cccc2c(=O)n(-c3cc[nH]n3)ccc12)C1CCCCCC1 (stereo not drawn) [ID 843] | > 76 | 7.91 | –
32 | O=C(CC1CCCCCC1)Nc1cccc2c(=O)n(-c3cc[nH]n3)ccc12 [ID 844] | > 76 | 8.48 | –
33 | O=C(Cc1cccc(C(F)(F)F)c1F)Nc1cccc2c(=O)n(C3CN4CCC3CC4)ccc12 (stereo not drawn) [ID 845] | > 76 | 6.87 | –
34 | O=C(Cc1ccc(Cl)cc1F)Nc1cccc2c(=O)n(C3CN4CCC3CC4)ccc12 (stereo not drawn) [ID 846] | > 76 | 6.79 | –
35 | O=C(Cc1ccc(Cl)c(C(F)(F)F)c1)Nc1cccc2c(=O)n(-c3cccnc3N3CCOCC3)ccc12 [ID 848] | > 76 | 7.35 | –
36 | O=C(CC1(O)CCCCCC1)Nc1cccc2c(=O)n([C@H]3CCNC3)ccc12 [ID 849] | 0 to 25 | 6.40 | –
37 | O=C(CC12CC3CC(CC(C3)C1)C2)Nc1cccc2c(=O)n(C3CN4CCC3CC4)ccc12 (stereo not drawn) [ID 850] | > 76 | – | 1.88

Row | SMILES | inhibition at 0.3 µM [%] | pIC50 (four parameter logistic fit) | IC50 (IL-1β IC50 (nM), four parameter logistic fit) [nM]
38 | Cc1ncccc1-n1ccc2c(NC(=O)Cc3ccc(C(F)(F)F)cc3)cccc2c1=O [ID 851] | > 76 | 6.83 | –
39 | Cc1ccncc1-n1ccc2c(NC(=O)Cc3cccc(C(F)(F)F)c3F)cccc2c1=O [ID 852] | > 76 | 7.37 | –
40 | Cc1ccncc1-n1ccc2c(NC(=O)Cc3ccc(C(F)(F)F)cc3)cccc2c1=O [ID 853] | 51 to 75 | 6.61 | –
41 | Cc1ncccc1-n1ccc2c(NC(=O)Cc3cccc(C(F)(F)F)c3F)cccc2c1=O [ID 854] | > 76 | 7.57 | –
42 | Cc1ccncc1-n1ccc2c(NC(=O)Cc3ccc(C(F)(F)F)c(F)c3)cccc2c1=O [ID 856] | > 76 | 6.89 | –
43 | Cc1ncccc1-n1ccc2c(NC(=O)Cc3ccc(F)c(Cl)c3)cccc2c1=O [ID 857] | > 76 | 7.12 | –
44 | Cc1ncccc1-n1ccc2c(NC(=O)Cc3ccc(Cl)c(F)c3)cccc2c1=O [ID 858] | > 76 | 7.48 | –
45 | Cc1ncccc1-n1ccc2c(NC(=O)Cc3ccc(Cl)cc3F)cccc2c1=O [ID 859] | > 76 | 7.30 | –
46 | Cc1ncccc1-n1ccc2c(NC(=O)Cc3ccc(F)c(C(F)(F)F)c3)cccc2c1=O [ID 860] | > 76 | 7.86 | –
47 | Cc1ncccc1-n1ccc2c(NC(=O)C(C)c3cccc(C(F)(F)F)c3F)cccc2c1=O (stereo not drawn) [ID 862] | > 76 | 7.76 | –
48 | Cc1ncccc1-n1ccc2c(NC(=O)[C@H](C)c3ccc(Cl)cc3)cccc2c1=O [ID 863] | > 76 | 7.37 | –
49 | Cc1ncccc1-n1ccc2c(NC(=O)[C@@H](C)c3ccc(Cl)cc3)cccc2c1=O [ID 864] | > 76 | 6.96 | –
50 | Cc1ncccc1-n1ccc2c(NC(=O)Cc3ccc(C(F)(F)F)cc3F)cccc2c1=O [ID 865] | > 76 | 7.12 | –
51 | Cc1ncccc1-n1ccc2c(NC(=O)Cc3cc(F)c(F)c(F)c3)cccc2c1=O [ID 866] | 51 to 75 | 7.01 | –
52 | Cc1ncccc1-n1ccc2c(NC(=O)Cc3ccc(F)c(F)c3F)cccc2c1=O [ID 867] | > 76 | 7.39 | –
53 | Cc1ncccc1-n1ccc2c(NC(=O)Cc3ccc(C(F)(F)F)cc3C(F)(F)F)cccc2c1=O [ID 868] | > 76 | 7.16 | –
54 | Cc1ncccc1-n1ccc2c(NC(=O)Cc3ccc(Cl)c(Cl)c3)cccc2c1=O [ID 869] | > 76 | 7.36 | –
55 | O=C(Cc1ccc(Cl)c(C(F)(F)F)c1)Nc1cccc2c(=O)n(-c3cccnc3F)ccc12 [ID 870] | > 76 | 8.30 | –
56 | O=C(Cc1ccc(F)c(C(F)(F)F)c1)Nc1cccc2c(=O)n(-c3cccnc3F)ccc12 [ID 872] | > 76 | 7.52 | –

Reference: US20090298825A1, “Bicycloheteroaryl Compounds as P2x7 Modulators and Uses Thereof” (priority 2006, published 2009)
